Non-standard residues stand in square brackets, D forms with d. Residues, ends and D or L forms follow the SMILES beside them. *: point of attachment. dPhe(4-NHCONH2) = NC(=O)Nc1ccc(C[C@@H](N)C(=O)O)cc1; Phe(4-NHCONH2) = NC(=O)Nc1ccc(C[C@H](N)C(=O)O)cc1; Dihydroorotyl(S) = O=C1C[C@@H](C(=O)*)NC(=O)N1; dPhe(4-NH2) = Nc1ccc(C[C@@H](N)C(=O)O)cc1; dPhe(4-Cl) = N[C@H](Cc1ccc(Cl)cc1)C(=O)O; Phe(4-NH2) = Nc1ccc(C[C@H](N)C(=O)O)cc1; d2Nal = N[C@H](Cc1ccc2ccccc2c1)C(=O)O; Lys(iPr) = CC(C)NCCCC[C@H](N)C(=O)O; d3Pal = N[C@H](Cc1cccnc1)C(=O)O
Key:
secretion of LH = assay: in vivo rat LH suppression test (circulating LH levels in castrated male rats after sc injection); design: species or system castrated male Sprague-Dawley rats; details: 50 micrograms sc
Protocol: The peptide is assayed in vivo to determine its effectiveness to suppress the secretion of LH in rats. Measurement of circulating LH levels in castrated male Sprague-Dawley rats treated subcutaneously with the peptide is carried out as reported in C. Rivier et al. Biol. Reproduc., 1983, 29, 374-378. The peptides are first dissolved at a concentration of 1.0 or 10 mg/ml in bacteriostatic water and then further diluted in 0.04 M phosphate buffer containing 0.1% BSA. Subsequent dilutions are made in phosphate buffer. The peptides are injected sc into 5 rats, and blood samples (300 μl) are collected under metotane anesthesia. Sera (50 μl) are tested for LH levels in duplicate using reagents provided by the National Pituitary and Hormone Distribution Program of the NIDDK.

[1] = water solubility compared with Acyline; assay type: physicochemical
[2] = examination of injected rats for tolerance and gelling at the point of injection; assay type: in vivo; details: 50 μg per rat sc

| water solubility compared with Acyline [1] | SMILES | effectiveness in suppression of LH compared with Acyline, first two days (secretion of LH; days 1-2) | suppression of LH compared with Acyline at days 3 and 4 (72 and 96 hours; after the first 2 days) (secretion of LH; days 3-4) | duration of bioactivity for the suppression of LH (rating in words) (secretion of LH) | suppression of LH compared with Acyline at 96 hours / 4 days (after day 3) (secretion of LH; 96 hours) | effectiveness in suppression of LH compared with Acyline, day 1 through day 3 (secretion of LH; days 1-3) | gelling at the point of injection [2] | tolerance of the peptide in injected rats [2] |
| --- | --- | --- | --- | --- | --- | --- | --- | --- |
| more water soluble than Acyline | CC(=O)Nc1ccc(C[C@@H](NC(=O)[C@H](Cc2ccc(NC(N)=O)cc2)NC(=O)[C@H](CO)NC(=O)[C@@H](Cc2cccnc2)NC(=O)[C@@H](Cc2ccc(Cl)cc2)NC(=O)[C@@H](Cc2ccc3ccccc3c2)NC(C)=O)C(=O)N[C@@H](CC(C)C)C(=O)N[C@@H](CCCCNC(C)C)C(=O)N2CCC[C@H]2C(=O)N[C@H](C)C(N)=O)cc1 [Example 1Q, Ac-β-D-2Nal-D-4Cpa-D-3Pal-Ser-4Aph(carbamoyl)-D-4Aph(Ac)-Leu-Lys(isopropyl)-Pro-D-Ala-NH2] (Ac-[d2Nal][dPhe(4-Cl)][d3Pal]S[Phe(4-NHCONH2)][dPhe(4-NH2)](Ac)L[Lys(iPr)]P[dA]-NH2) | equal to about values of Acyline | not as effective as Acyline |  |  |  |  |  |
| more water soluble than Acyline | CC(=O)Nc1ccc(C[C@H](NC(=O)[C@H](CO)NC(=O)[C@@H](Cc2cccnc2)NC(=O)[C@@H](Cc2ccc(Cl)cc2)NC(=O)[C@@H](Cc2ccc3ccccc3c2)NC(C)=O)C(=O)N[C@H](Cc2ccc(NC(N)=O)cc2)C(=O)N[C@@H](CC(C)C)C(=O)N[C@@H](CCCCNC(C)C)C(=O)N2CCC[C@H]2C(=O)N[C@H](C)C(N)=O)cc1 [Example 1P, Ac-β-D-2Nal-D-4Cpa-D-3Pal-Ser-4Aph(Ac)-D-4Aph(carbamoyl)-Leu-Lys(isopropyl)-Pro-D-Ala-NH2] (Ac-[d2Nal][dPhe(4-Cl)][d3Pal]S[Phe(4-NH2)](Ac)[dPhe(4-NHCONH2)]L[Lys(iPr)]P[dA]-NH2) |  |  | long duration | slightly superior to Acyline | substantially the same as Acyline |  |  |
|  | CC(=O)N[C@H](Cc1ccc2ccccc2c1)C(=O)N[C@H](Cc1ccc(Cl)cc1)C(=O)N[C@H](Cc1cccnc1)C(=O)N[C@@H](CO)C(=O)N[C@@H](Cc1ccc(NC(=O)[C@@H]2CC(=O)NC(=O)N2)cc1)C(=O)N[C@H](Cc1ccc(NC(N)=O)cc1)C(=O)N[C@@H](CC(C)C)C(=O)N[C@@H](CCCCNC(C)C)C(=O)N1CCC[C@H]1C(=O)N[C@H](C)C(N)=O [Example 1, Ac-D-2Nal-(4Cl)D-Phe-D-3Pal-Ser-4Aph(hydroorotyl)-D-4Aph(carbamoyl)-Leu-Lys(isopropyl)-Pro-D-Ala-NH2] (Ac-[d2Nal][dPhe(4-Cl)][d3Pal]S[Phe(4-NH2)](Dihydroorotyl(S))[dPhe(4-NHCONH2)]L[Lys(iPr)]P[dA]-NH2) |  |  |  |  |  | no significant gelling | very well tolerated |

Reference: patent US5925730A, “GnRH antagonists” (Ferring BV, priority 1997, dated 1999)
